What was measured:
[1] = biological target: T1, human 11β-HSD2 (Homo sapiens, UniProt P80365); experiment: Cellular in vitro 11β-HSD2 enzyme inhibition assay (CHO cells, TLC/phosphoimager); type: cell-based; conditions: CHO cells stably transfected with human 11β-HSD2; 22 nM tritiated cortisol, 16 hours
T1 construct: CHO cells stably transfected with the full-length gene coding for human 11β-HSD2 were used; expressed in transfected cells
T1 sequence (P80365 1-405): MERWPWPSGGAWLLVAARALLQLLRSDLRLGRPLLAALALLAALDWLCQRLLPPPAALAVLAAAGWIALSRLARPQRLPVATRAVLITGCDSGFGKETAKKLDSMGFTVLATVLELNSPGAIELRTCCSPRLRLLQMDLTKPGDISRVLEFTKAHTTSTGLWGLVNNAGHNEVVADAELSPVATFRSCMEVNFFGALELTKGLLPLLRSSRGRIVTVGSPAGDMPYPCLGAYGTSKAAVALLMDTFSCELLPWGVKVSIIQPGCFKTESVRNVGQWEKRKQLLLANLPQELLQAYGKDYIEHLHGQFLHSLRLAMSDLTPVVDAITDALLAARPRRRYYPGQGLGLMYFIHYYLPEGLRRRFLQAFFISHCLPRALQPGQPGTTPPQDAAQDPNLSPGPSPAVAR
Description: Cellular In Vitro 11β-HSD2 Enzyme Inhibition Assay
For measurement of inhibition of 11β-HSD2, CHO cells stably transfected with the full-length gene coding for human 11β-HSD2 were used. Assays were carried out in 96-well microplates containing 1×10^5 cells/well. Controls and compounds were plated as above, so that the final DMSO concentration in each well was 1%. To initiate the assay, 90 μL of a solution of HAMS F-12 medium containing 1% glutamine, 1% penicillin and streptomycin, and 22 nM tritiated cortisol was added to each well of the assay plate. The plate was then incubated in 5% CO2, 95% O2 at 37° C. for 16 hours.
The assay solutions were transferred to glass tubes and 20 μL ethyl acetate added to each tube. Each tube was vortexed thoroughly and the upper layer containing the tritiated steroid transferred to a fresh glass tube. The solvent was evaporated by placing the tubes in a heating block at 65° C. under a stream of Nitrogen gas. 20 μL ethanol was added to each of the dried samples and vortexed briefly. Each sample was applied to a silica TLC plate and the plate dried. The plate was placed vertically in a glass tank containing 92% chloroform:8% ethanol and the solvent allowed to rise up the plate. The plate was dried, placed in an imaging cassette, and overlayed with a tritium imaging plate for 1-2 days. The amount of enzyme inhibition in each sample was determined by measuring the intensity of the substrate and product spots using a phosphoimager.
IC50 values for inhibitors were determined as described for 11β-HSD1.

[2] = biological target: T2, human 11β-HSD1 enzyme (Homo sapiens, UniProt P28845); experiment: Cellular in vitro 11β-HSD1 enzyme inhibition assay (SPA, HEK293/11β-HSD1 cells); type: cell-based; conditions: HEK293 cells stably transfected with human 11β-HSD1; 22 nM tritiated cortisone, 2 hours
T2 construct: stably transfected with a construct containing the full-length gene coding for the human 11β-HSD1 enzyme; expressed in transfected cells; HEK293/11β-HSD1)
T2 sequence (P28845 whole entry): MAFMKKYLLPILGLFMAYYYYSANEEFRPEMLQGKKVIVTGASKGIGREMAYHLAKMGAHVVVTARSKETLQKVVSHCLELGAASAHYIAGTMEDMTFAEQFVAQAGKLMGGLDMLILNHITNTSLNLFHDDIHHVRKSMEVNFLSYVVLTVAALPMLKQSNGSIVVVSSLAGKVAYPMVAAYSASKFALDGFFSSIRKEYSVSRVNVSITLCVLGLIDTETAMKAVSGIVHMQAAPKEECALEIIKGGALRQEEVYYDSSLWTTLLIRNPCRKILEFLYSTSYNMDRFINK
Description: Cellular In Vitro 11β-HSD1 Enzyme Inhibition Assay
Compounds were assessed by a Scintillation Proximity Assay (SPA) performed according to the following protocol:
HEK293 cells were stably transfected with a construct containing the full-length gene coding for the human 11β-HSD1 enzyme to create HEK293/11β-HSD1 cells. Cells were routinely cultured in DMEM containing 10% calf foetal serum, 1% glutamine, and 1% penicillin and streptomycin. Prior to assay, cells were plated at 2×10^4 cells/well in 96-well poly-D-Lys coated flat-bottomed microplates and incubated in 5% CO2, 95% O2 at 37° C. for 24 hours. The media in each well was removed immediately before assay.
Compounds to be tested were dissolved in DMSO at 10 mM and serially diluted into water containing 10% DMSO. Diluted compounds at a volume of 10 μL were added to wells of a 96-well V-bottomed microplate. A solution of DMEM, 1% glutamine, 1% penicillin and streptomycin, and 22 nM tritiated cortisone was prepared and 90 μL added to each well of the assay plate. This solution (100 μL/well) was transferred to the plate containing the cells. The plate was then incubated in 5% CO2, 95% O2 at 37° C. for 2 hours.
Following this incubation, 50 μL of the assay solution was transferred to each well of a 96-well scintillation microplate. A mixture consisting of anti-mouse YSi SPA beads, pre-mixed with anti-cortisol antibody in assay buffer (50 mM Tris.HCl, pH 7.0; 300 mM NaCl; 1 mM EDTA, 5% glycerol) was prepared and 50 μL added to each well of the scintillation microplate. An adhesive strip was applied to the microplate and the plate gently shaken for at least 2 hours at room temperature, and then spun briefly on a low speed centrifuge. The plate was read on a scintillation counter suitable for 96-well microplates. For the calculation of percentage inhibition, a series of wells were added to the plate that represented the assay maximum and the assay minimum: one set that contained substrate without cells (minimum) and another set that contained substrate and cells without any compound (maximum).
The calculation of median inhibitory concentration (IC50) values for the compounds was performed using GraphPad Prism® software. Dose-response curves for each compound were plotted as fractional inhibition and data fitted to the four parameter logistic equation.

| IC50 [1] | IC50 [2] | SMILES |
| --- | --- | --- |
| > 10 µM | ≤ 0.5 µM | O=C(c1cc(-c2ccccc2)sn1)N1CCCC2CCCCC21 (stereo not drawn) [AA-02, (Octahydro-quinolin-1-yl)-(5-phenyl-isothiazol-3-yl)-methanone] |
| > 10 µM | 0.059 µM | O=C(c1cnsc1-c1ccccc1)N1CCCC2CCCCC21 (stereo not drawn) [AA-01, (Octahydro-quinolin-1-yl)-(5-phenyl-isothiazol-4-yl)-methanone] |
| > 10 µM | ≤ 0.5 µM | O=C(c1cc(-c2cn[nH]c2)sn1)N1CCCC1c1ccc(F)cc1 (stereo not drawn) [BB-02, [2-(4-Fluoro-phenyl)-pyrrolidin-1-yl]-[5-(1H-pyrazol-4-yl)-isothiazol-3-yl]-methanone] |
| > 10 µM | 0.018 µM | O=C(c1cc(-c2cn[nH]c2)sn1)N1CCC[C@@H]2CCCC[C@@H]21 [BB-01, (4aS,8aS)-Octahydro-quinolin-1-yl-[5-(1H-pyrazol-4-yl)-isothiazol-3-yl]-methanone] |
| > 10 µM | ≤ 0.5 µM | O=C1c2ccccc2C(=O)N1c1cc(C(=O)N2CCC[C@@H]3CCCC[C@@H]32)ns1 [BB-03, 2-[3-((4aS,8aS)-Octahydro-quinoline-1-carbonyl)-isothiazol-5-yl]-isoindole-1,3-dione] |
| > 10 µM | 0.062 µM | O=C(c1cc(C2CCOCC2)sn1)N1CCC[C@@H]2CCCC[C@@H]21 [CC-01, (4aS,8aS)-Octahydro-quinolin-1-yl-[5-(tetrahydro-pyran-4-yl)-isothiazol-3-yl]-methanone] |
